Earlier results in patent US6482832B1, “Heterocyclically substituted amides, their production and their use” (Abbott Laboratories, priority 1998, dated 2002).
Read-outs that look alike come from different tables or passages of the source.

What was measured:
[1] = tested on: calpain
[2] = tested on: cells; conditions: surmount the cell membrane only with difficulty
[3] = tested on: calpain-mediated cleavage of pp60src in platelets; conditions: activated platelets; Oda et al., J. Biol. Chem. 1993

Compound | calpain inhibition ([1]; known calpain inhibitors) | effect on cells [2] | cleavage of pp60src [3] | calpain inhibition ([1]; M. R. Angelastro et al., J. Med. Chem. 1990, 33, 11-13)
CC(=O)N[C@@H](CC(C)C)C(=O)N[C@@H](CC(C)C)C(=O)N[C@H](C=O)CCCNC(=N)N [leupeptin] | good calpain inhibitors | poor effect on cells |  | 
CCCC[C@@H](C=O)NC(=O)[C@H](CC(C)C)NC(=O)OCc1ccccc1 [calpeptin] |  |  | can prevent the cleavage of pp60src | 
CC(C)C[C@H](NC(=O)[C@H]1O[C@@H]1C(=O)O)C(=O)NCCCCN=C(N)N [E 64] | good calpain inhibitors | poor effect on cells |  | 
Ph—CONH—CH(CH2Ph)—CO—COCOOCH3 |  |  |  | only a weak calpain inhibitor
